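Each compound was tested at five concentrations against cells in 96-well plates for 48 hours. TGI: concentration producing complete growth inhibition.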
Experiments:
Experiment in all cases: NCI-60 cell line screen, 48 h
CAKI-1 renal = test system: CAKI-1 renal
DU-145 prostate = test system: DU-145 prostate
KM12 colon = test system: KM12 colon
LOX IMVI melanoma = test system: LOX IMVI melanoma
MALME-3M melanoma = test system: MALME-3M melanoma
MDA-MB-435 = test system: MDA-MB-435
MDA-N = test system: MDA-N
NCI-H226 lung = test system: NCI-H226 lung
NCI-H23 lung = test system: NCI-H23 lung
NCI-H460 lung = test system: NCI-H460 lung
NCI-H522 lung = test system: NCI-H522 lung
OVCAR-4 ovarian = test system: OVCAR-4 ovarian
RXF 393 renal = test system: RXF 393 renal
SF-295 CNS = test system: SF-295 CNS
SK-MEL-2 melanoma = test system: SK-MEL-2 melanoma
SK-MEL-28 melanoma = test system: SK-MEL-28 melanoma
SW-620 colon = test system: SW-620 colon
U251 CNS = test system: U251 CNS
UO-31 renal = test system: UO-31 renal
HT29 colon = test system: HT29 colon

Structure (SMILES) | TGI (CAKI-1 renal) | TGI (DU-145 prostate) | TGI (KM12 colon) | TGI (LOX IMVI melanoma) | TGI (MALME-3M melanoma) | TGI (MDA-MB-435) | TGI (MDA-N) | TGI (NCI-H226 lung) | TGI (NCI-H23 lung) | TGI (NCI-H460 lung) | TGI (NCI-H522 lung) | TGI (OVCAR-4 ovarian) | TGI (RXF 393 renal) | TGI (SF-295 CNS) | TGI (SK-MEL-2 melanoma) | TGI (SK-MEL-28 melanoma) | TGI (SW-620 colon) | TGI (U251 CNS) | TGI (UO-31 renal) | TGI (HT29 colon)
CC(C)=CCC[C@@H](C)/C=C/C=C(\C)C(=O)CC[C@@H]1CC[N@+]2(C)CCCC[C@H]12 | > 100 µM | > 100 µM | > 100 µM | > 100 µM | > 100 µM | > 100 µM | > 100 µM | > 100 µM | > 100 µM | > 100 µM | > 100 µM | > 100 µM | > 100 µM | > 100 µM | > 100 µM | > 100 µM | > 100 µM | > 100 µM | > 100 µM | –
CC(=O)C1=C(C)N2C(=NC3=C(CCc4ccccc43)C2c2ccc(F)cc2)S1 (stereo unspecified) | – | > 100 µM | > 100 µM | > 100 µM | – | > 100 µM | > 100 µM | > 100 µM | > 100 µM | – | – | > 100 µM | > 100 µM | > 100 µM | > 100 µM | > 100 µM | > 100 µM | > 100 µM | > 100 µM | > 100 µM
O=C1/C(=C\Oc2ccc(F)cc2)N2CCC1CC2 | > 100 µM | 36.7 µM | – | > 100 µM | > 100 µM | > 100 µM | > 100 µM | > 100 µM | > 100 µM | – | > 100 µM | > 100 µM | > 100 µM | > 100 µM | > 100 µM | > 100 µM | – | > 100 µM | > 100 µM | > 100 µM
c1ccc([P+](CCSCCSCC[P+](c2ccccc2)(c2ccccc2)c2ccccc2)(c2ccccc2)c2ccccc2)cc1 | – | > 100 µM | > 100 µM | – | – | > 100 µM | > 100 µM | > 100 µM | > 100 µM | > 100 µM | – | > 100 µM | > 100 µM | > 100 µM | > 100 µM | > 100 µM | > 100 µM | > 100 µM | > 100 µM | > 100 µM
CC#CC(O)(C(=O)OCCCN(C)C)C1CCCCC1 (stereo unspecified) | – | > 100 µM | > 100 µM | > 100 µM | > 100 µM | > 100 µM | > 100 µM | > 100 µM | > 100 µM | > 100 µM | – | – | > 100 µM | > 100 µM | > 100 µM | > 100 µM | > 100 µM | > 100 µM | > 100 µM | > 100 µM
S=c1[nH]nc(CNc2ccc(-c3n[nH]c(=S)n3-c3ccc(Cl)cc3)cc2)n1-c1ccc(Cl)cc1 | 40.7 µM | 71.1 µM | 44 µM | – | 59.9 µM | > 100 µM | 86.1 µM | > 100 µM | > 100 µM | > 100 µM | 48.5 µM | > 100 µM | > 100 µM | 81.2 µM | 57.7 µM | 64.2 µM | > 100 µM | > 100 µM | 32.4 µM | 66.7 µM
CC(=O)Nc1c(S(=O)(=O)c2ccccc2)c(C)c(C)n1CCN(C)C | > 100 µM | > 100 µM | > 100 µM | – | > 100 µM | > 100 µM | > 100 µM | > 100 µM | > 100 µM | > 100 µM | > 100 µM | > 100 µM | > 100 µM | > 100 µM | > 100 µM | > 100 µM | > 100 µM | > 100 µM | > 100 µM | > 100 µM
CC(=O)C(=[N+]=[N-])C(=O)N1CCOC1=O | > 10 µM | > 10 µM | > 10 µM | > 10 µM | > 10 µM | > 10 µM | > 10 µM | > 10 µM | > 10 µM | > 10 µM | – | > 10 µM | > 10 µM | > 10 µM | > 10 µM | > 10 µM | > 10 µM | > 10 µM | > 10 µM | > 10 µM
COC(=O)C(NC(=O)C(CC(=O)OC(C)(C)C)NC(=O)OC(C)(C)C)C(O)c1ccccc1 (stereo unspecified) | > 100 µM | > 100 µM | > 100 µM | > 100 µM | > 100 µM | > 100 µM | > 100 µM | > 100 µM | > 100 µM | > 100 µM | > 100 µM | > 100 µM | > 100 µM | – | > 100 µM | > 100 µM | > 100 µM | > 100 µM | > 100 µM | > 100 µM
O=c1[nH]c(Cc2ccccc2)nc2c1sc1nc3ccccc3n12 | > 100 µM | > 100 µM | > 100 µM | > 100 µM | – | > 100 µM | > 100 µM | > 100 µM | > 100 µM | > 100 µM | > 100 µM | > 100 µM | > 100 µM | > 100 µM | > 100 µM | > 100 µM | > 100 µM | > 100 µM | > 100 µM | > 100 µM
O=C1NC(N2CCOCC2)=N/C1=C\c1ccc(Cl)cc1 | > 100 µM | > 100 µM | > 100 µM | > 100 µM | > 100 µM | > 100 µM | > 100 µM | > 100 µM | > 100 µM | – | > 100 µM | > 100 µM | > 100 µM | > 100 µM | > 100 µM | > 100 µM | > 100 µM | > 100 µM | > 100 µM | > 100 µM
CC(NC(=O)/C(=C/c1ccccc1)NC(=O)c1ccccc1)C(=O)O (stereo unspecified) | > 100 µM | > 100 µM | > 100 µM | > 100 µM | > 100 µM | > 100 µM | > 100 µM | 99.5 µM | > 100 µM | > 100 µM | > 100 µM | – | > 100 µM | > 100 µM | > 100 µM | > 100 µM | > 100 µM | > 100 µM | > 100 µM | > 100 µM
C=CCn1c(-c2ccc([N+](=O)[O-])cc2)cs/c1=N\C(P(=O)(O)O)P(=O)(O)O | > 100 µM | > 100 µM | > 100 µM | > 100 µM | > 100 µM | > 100 µM | > 100 µM | > 100 µM | > 100 µM | > 100 µM | > 100 µM | – | > 100 µM | > 100 µM | – | > 100 µM | > 100 µM | > 100 µM | > 100 µM | > 100 µM

Source: PubChem BioAssay (NCI)
